System: IL-2 secretion
Experiment: Inhibition of IL-2 secretion in PHA-stimulated Jurkat T cells (ELISA)
Assay type: cell-based
Conditions: Homo sapiens, PHA stimulation, 20 to 24 hours, IL-2 by ELISA
Procedure: The CRAC channel modulatory activity of the compounds were thus evaluated by measuring the secretion of IL-2 by antigen stimulated T-cells in vitro. Alternatively, such activity can also be evaluated by assay methods known to one skilled in the art.
Inhibition of IL-2 secretion: Jurkat T cells were seeded at a density of 0.5 to 1 million cells per well in RPMI medium. Test compounds from this invention were added to the cells at different concentrations. This was followed by the addition of PHA, a T cell mitogen after 10 minutes. The cells were then incubated for 20 to 24 hours in a CO2 incubator at 37° C. After incubation with the compounds, cells were centrifuged, the supernatant was collected and processed for ELISA to quantitate the amount of IL-2 secreted. A commercial ELISA kit (R&D Systems, Inc. Minneapolis, Minn., USA) was used to estimate the IL-2 concentrations. Amount of IL-2 secreted by cells stimulated with PHA was considered as a 100% maximal signal and the decrease in amount of IL-2 secreted by cells treated with the test compounds was expressed as percent inhibition of the maximal signal. The dose response data was analyzed using 4-parametric sigmoidal dose response (variable slope) curve—fit.

Structure (SMILES)	IC50
Cn1nc(-c2cc(C3CC3)nn2-c2ccc(NC(=O)c3c(F)cccc3F)cn2)oc1=O [Example 30, N-(6-(3-Cyclopropyl 5-(4-methyl-5-oxo-4,5-dihydro-1,3,4-oxadiazol-2-yl)-1H-pyrazol-1-yl)pyridin-3-yl)-2,6-difluorobenzamide]	100 to 1000 nM
Cc1cc(-c2nn(C)c(=O)o2)nn1-c1ccc(NC(=O)c2c(F)cccc2F)cn1 [Example 31, 2,6-Difluoro-N-(6-(5-methyl-3-(4-methyl-5-oxo-4,5-dihydro-1,3,4-oxadiazol-2-yl)-1H-pyrazol-1-yl)pyridin-3-yl)benzamide]	> 1000 nM
CC1(CO)CC(c2cc(C(F)(F)F)n(-c3ccc(NCc4c(F)cccc4Cl)cn3)n2)=NO1 (centres unmarked) [Example 34, (3-(1-(5-((2-Chloro-6-fluorobenzyl)amino)pyridin-2-yl)-5-(trifluoromethyl)-1H-pyrazol-3-yl)-5-methyl-4,5-dihydroisoxazol-5-yl)methanol]	100 to 1000 nM
COC(=O)C1(C)CC(c2cc(C(F)(F)F)n(-c3ccc(NC(=O)c4c(F)cccc4F)cn3)n2)=NO1 (centres unmarked) [Example 35, Methyl 3-(1-(5-(2,6-difluorobenzamido)pyridin-2-yl)-5-(trifluoromethyl)-1H-pyrazol-3-yl)-5-methyl-4,5-dihydroisoxazole-5-carboxylate]	100 to 1000 nM
Cn1nc(-c2cc(C(F)(F)F)n(-c3ccc(NC(=O)c4ccccc4Cl)nc3)n2)oc1=O [Example 47, 2-Chloro-N-(5-(3-(4-methyl-5-oxo-4,5-dihydro-1,3,4-oxadiazol-2-yl)-5-(trifluoromethyl)-1H-pyrazol-1-yl)pyridin-2-yl)benzamide]	< 100 nM
Cc1ccccc1C(=O)Nc1ccc(-n2nc(-c3nn(C)c(=O)o3)cc2C(F)(F)F)cn1 [Example 48, 2-Methyl-N-(5-(3-(4-methyl-5-oxo-4,5-dihydro-1,3,4-oxadiazol-2-yl)-5-(trifluoromethyl)-1H-pyrazol-1-yl)pyridin-2-yl)benzamide]	< 100 nM
CCc1ccc(C(=O)Nc2ccc(-n3nc(-c4nn(C)c(=O)o4)cc3C(F)(F)F)cn2)cc1 [Example 49, 4-Ethyl-N-(5-(3-(4-methyl-5-oxo-4,5-dihydro-1,3,4-oxadiazol-2-yl)-5-(trifluoromethyl)-1H-pyrazol-1-yl)pyridin-2-yl)benzamide]	100 to 1000 nM
Cn1nc(-c2cc(C(F)(F)F)n(-c3ccc(NC(=O)c4ccc5ccccc5c4)nc3)n2)oc1=O [Example 50, N-(5-(3-(4-Methyl-5-oxo-4,5-dihydro-1,3,4-oxadiazol-2-yl)-5-(trifluoromethyl)-1H-pyrazol-1-yl)pyridin-2-yl)-2-naphthamide]	100 to 1000 nM
Cn1nc(-c2cc(C(F)(F)F)n(-c3ccc(NCc4c(F)cccc4F)nc3)n2)oc1=O [Example 51, 5-(1-(6-((2,6-Difluorobenzyl)amino)pyridin-3-yl)-5-(trifluoromethyl)-1H-pyrazol-3-yl)-3-methyl-1,3,4-oxadiazol-2(3H)-one]	< 100 nM
Cn1nc(-c2cc(C(F)(F)F)n(-c3ccc(NCc4c(F)cccc4Cl)nc3)n2)oc1=O [Example 52]	< 100 nM

Next, values leading:

IC50	Structure (SMILES)
< 100 nM	Cc1cc(-c2nn(C)c(=O)o2)nn1-c1ccc(NCc2c(F)cccc2F)cn1 [Example 32, 5-(1-(5-((2,6-Difluorobenzyl)amino)pyridin-2-yl)-5-methyl-1H-pyrazol-3-yl)-3-methyl-1,3,4-oxadiazol-2(3H)-one]
< 100 nM	CC1(CO)CC(c2cc(C(F)(F)F)n(-c3ccc(NCc4c(F)cccc4F)cn3)n2)=NO1 (centres unmarked) [Example 33, (3-(1-(5-((2,6-Difluorobenzyl)amino)pyridin-2-yl)-5-(trifluoromethyl)-1H-pyrazol-3-yl)-5-methyl-4,5-dihydroisoxazol-5-yl)methanol]
< 100 nM	CC1(CO)CC(c2cc(C(F)(F)F)n(-c3ccc(NC(=O)c4c(F)cccc4F)cn3)n2)=NO1 (centres unmarked) [Example 36, 2,6-Difluoro-N-(6-(3-(5-(hydroxymethyl)-5-methyl-4,5-dihydroisoxazol-3-yl)-5-(trifluoromethyl)-1H-pyrazol-1-yl)pyridin-3-yl)benzamide]
< 100 nM	CC1(C(N)=O)CC(c2cc(C(F)(F)F)n(-c3ccc(NC(=O)c4c(F)cccc4F)cn3)n2)=NO1 (centres unmarked) [Example 37, 3-(1-(5-(2,6-Difluorobenzamido)pyridin-2-yl)-5-(trifluoromethyl)-1H-pyrazol-3-yl)-5-methyl-4,5-dihydroisoxazole-5-carboxamide]
< 100 nM	Cn1nc(-c2cc(C(F)(F)F)n(-c3ccc(NC(=O)c4c(F)cccc4F)nc3)n2)oc1=O [Example 38, 2,6-Difluoro-N-(5-(3-(4-methyl-5-oxo-4,5-dihydro-1,3,4-oxadiazol-2-yl)-5-(trifluoromethyl)-1H-pyrazol-1-yl)pyridin-2-yl)benzamide]
< 100 nM	Cn1nc(-c2cc(C(F)(F)F)n(-c3ccc(NC(=O)c4c(F)cccc4Cl)nc3)n2)oc1=O [Example 39, 2-Chloro-6-fluoro-N-(5-(3-(4-methyl-5-oxo-4,5-dihydro-1,3,4-oxadiazol-2-yl)-5-(trifluoromethyl)-1H-pyrazol-1-yl)pyridin-2-yl)benzamide]
< 100 nM	Cc1cccc(F)c1C(=O)Nc1ccc(-n2nc(-c3nn(C)c(=O)o3)cc2C(F)(F)F)cn1 [Example 40, 2-Fluoro-6-methyl-N-(5-(3-(4-methyl-5-oxo-4,5-dihydro-1,3,4-oxadiazol-2-yl)-5-(trifluoromethyl)-1H-pyrazol-1-yl)pyridin-2-yl)benzamide]
< 100 nM	Cn1nc(-c2cc(C(F)(F)F)n(-c3ccc(NC(=O)c4ccccc4F)nc3)n2)oc1=O [Example 41, 2-Fluoro-N-(5-(3-(4-methyl-5-oxo-4,5-dihydro-1,3,4-oxadiazol-2-yl)-5-(trifluoromethyl)-1H-pyrazol-1-yl)pyridin-2-yl)benzamide]
< 100 nM	Cn1nc(-c2cc(C(F)(F)F)n(-c3ccc(NC(=O)c4cccc(F)c4F)nc3)n2)oc1=O [Example 42, 2,3-Difluoro-N-(5-(3-(4-methyl-5-oxo-4,5-dihydro-1,3,4-oxadiazol-2-yl)-5-(trifluoromethyl)-1H-pyrazol-1-yl)pyridin-2-yl)benzamide]
< 100 nM	Cn1nc(-c2cc(C(F)(F)F)n(-c3ccc(NC(=O)c4cc(F)c(F)cc4F)nc3)n2)oc1=O [Example 43, 2,4,5-Trifluoro-N-(5-(3-(4-methyl-5-oxo-4,5-dihydro-1,3,4-oxadiazol-2-yl)-5-(trifluoromethyl)-1H-pyrazol-1-yl)pyridin-2-yl)benzamide]
< 100 nM	Cn1nc(-c2cc(C(F)(F)F)n(-c3ccc(NC(=O)c4ccc(F)c(F)c4F)nc3)n2)oc1=O [Example 44, 2,3,4-Trifluoro-N-(5-(3-(4-methyl-5-oxo-4,5-dihydro-1,3,4-oxadiazol-2-yl)-5-(trifluoromethyl)-1H-pyrazol-1-yl)pyridin-2-yl)benzamide]
< 100 nM	Cn1nc(-c2cc(C(F)(F)F)n(-c3ccc(NC(=O)c4ccc(F)cc4F)nc3)n2)oc1=O [Example 45, 2,4-Difluoro-N-(5-(3-(4-methyl-5-oxo-4,5-dihydro-1,3,4-oxadiazol-2-yl)-5-(trifluoromethyl)-1H-pyrazol-1-yl)pyridin-2-yl)benzamide]
< 100 nM	Cc1cccc(C(=O)Nc2ccc(-n3nc(-c4nn(C)c(=O)o4)cc3C(F)(F)F)cn2)c1C [Example 46, 2,3-Dimethyl-N-(5-(3-(4-methyl-5-oxo-4,5-dihydro-1,3,4-oxadiazol-2-yl)-5-(trifluoromethyl)-1H-pyrazol-1-yl)pyridin-2-yl)benzamide]

Source: patent US9409898B2, “Substituted pyrazole compounds as CRAC modulators” (LUPIN LIMITED, priority 2012, dated 2016)
